The values that follow come from patent US6696461B2, “Tricyclic imidazopyridines” (Altana Pharma AG, priority 2000, dated 2004).

In the first data set the test system is pentagastrin-stimulated acid secretion of the perfused rat stomach. The experiment in a line: Secretion-inhibiting action on the perfused rat stomach (pentagastrin-stimulated acid secretion, i.v. administration in vivo). Conditions: anesthetized CD rat, dose 3 μmol/kg i.v. The text has this:
Testing of the Secretion-inhibiting Action on the Perfused Rat Stomach
In Table A which follows, the influence of the compounds according to the invention on the pentagastrin-stimulated acid secretion of the perfused rat stomach after intravenous administration in vivo is shown.
The abdomen of anesthetized rats (CD rat, female, 200-250 g; 1.5 g/kg i.m. urethane) was opened after tracheotomy by a median upper abdominal incision and a PVC catheter was fixed transorally in the esophagus and another via the pylorus such that the ends of the tube just projected into the gastric lumen. The catheter leading from the pylorus led outward into the right abdominal wall through a side opening.
After thorough rinsing (about 50-100 ml), warm (37° C.) physiological NaCl solution was continuously passed through the stomach (0.5 ml/min, pH 6.8-6.9; Braun-Unita 1). The pH (pH meter 632, glass electrode EA 147; φ=5 mm, Metrohm) and, by titration with a freshly prepared 0.01N NaOH solution to pH 7 (Dosimat 665 Metrohm), the secreted HCl were determined in the effluent in each case collected at an interval of 15 minutes.
The gastric secretion was stimulated by continuous infusion of […] (=1.65 ml/h) of i.v. pentagastrin (left femoral vein) about 30 min after the end of the operation (i.e. after determination of 2 preliminary fractions). […]
As for `COCc1cn2c(C)c(C)nc2c2c1[C@H](OC)[C@H](O)[C@@H](c1ccccc1)N2` [Example 17, (7S,8R,9R)-8-Hydroxy-7-methoxy-6-methoxymethyl-2,3-dimethyl-9-phenyl-7,8,9,10-tetrahydroimidazo[1,2-h][1,7]naphthyridine], the “Inhibition of acid secretion” value is 100%.

System in the next data set: not given
Assay: not given
Conditions: not given
Consider `COCc1cn2c(C)c(C)nc2c2c1[C@H](O)[C@H](O)[C@@H](c1ccccc1)N2` [Example 15, (7S,8R,9R)-7,8-Dihydroxy-6-methoxymethyl-2,3-dimethyl-9-phenyl-7,8,9,10-tetrahydroimidazo[1,2-h][1,7]naphthyridine], for which the melting point was 182 to 183 °C (dec.).
On the same count and under the same terms, under `COCc1cn2c(C)c(C)nc2c2c1[C@H](OC)[C@H](O)[C@@H](c1ccccc1)N2` [Example 17, (7S,8R,9R)-8-Hydroxy-7-methoxy-6-methoxymethyl-2,3-dimethyl-9-phenyl-7,8,9,10-tetrahydroimidazo[1,2-h][1,7]naphthyridine] stands 126 to 129 °C (dec.); under `COCCO[C@@H]1c2c(COC)cn3c(C)c(C)nc3c2N[C@H](c2ccccc2)[C@H]1O` [Example 19, (7R,8R,9R)-8-Hydroxy-7-(2-methoxyethoxy)-6-methoxymethyl-2,3-dimethyl-9-phenyl-7,8,9,10-tetrahydroimidazo[1,2-h][1,7]naphthyridine], 158 to 160 °C; under `COCCO[C@H]1c2c(COC)cn3c(C)c(C)nc3c2N[C@H](c2ccccc2)[C@H]1O` [Example 20, (7S,8R,9R)-8-Hydroxy-7-(2-methoxyethoxy)-6-methoxymethyl-2,3-dimethyl-9-phenyl-7,8,9,10-tetrahydroimidazo[1,2-h][1,7]naphthyridine], 158 to 160 °C (dec.).
The same measure, in the same setting: as for `CCO[C@@H]1c2c(COC)cn3c(C)c(C)nc3c2N[C@H](c2ccccc2)[C@H]1O` [Example 21, (7R,8R,9R)-8-Hydroxy-7-ethoxy-6-methoxymethyl-2,3-dimethyl-9-phenyl-7,8,9,10-tetrahydroimidazo[1,2-h][1,7]naphthyridine], the figure is 184 to 186 °C (dec.); as for `CCO[C@H]1c2c(COC)cn3c(C)c(C)nc3c2N[C@H](c2ccccc2)[C@H]1O` [Example 22, (7S,8R,9R)-8-Hydroxy-7-ethoxy-6-methoxymethyl-2,3-dimethyl-9-phenyl-7,8,9,10-tetrahydroimidazo[1,2-h][1,7]naphthyridine], 163 to 164 °C (dec.).

A word on the melting point: it is the temperature of the solid-liquid transition.
